The IC50 is the midpoint of a concentration-inhibition curve.

Experimental findings from ChEMBL document CHEMBL4613209, “Quinolone hybrids and their anti-cancer activities: An overview” (Eur J Med Chem, 2019) are described below.

The first test concerns HL-60. Kind of test: Cytotoxicity against human HL60 cells assessed as reduction in cell viability. The class given is functional, cell-based.
Regarding `COc1ccc(/C=c2\sc3nc(-c4cn(C5CC5)c5cc(N6CCN(C)CC6)c(F)cc5c4=O)nn3c2=O)cc1`, the IC50 is over 10000 nM.
Still for that read-out and setting: then `CN1CCN(c2cc3c(cc2F)c(=O)c(-c2nc4s/c(=C\c5ccc([N+](=O)[O-])cc5)c(=O)n4n2)cn3C2CC2)CC1`, with 300 to 8400 nM; and `CN1CCN(c2cc3c(cc2F)c(=O)c(-c2nc4s/c(=C\c5cccc(S(N)(=O)=O)c5)c(=O)n4n2)cn3C2CC2)CC1`, with 300 to 8400 nM.
`COC(=O)c1ccc(/C=c2\sc3nc(-c4cn(C5CC5)c5cc(N6CCN(C)CC6)c(F)cc5c4=O)nn3c2=O)cc1`: the IC50 was in the range of 300 to 8400 nM.
For the compound `CN1CCN(c2cc3c(cc2F)c(=O)c(-c2nc4s/c(=C\c5cccc([N+](=O)[O-])c5)c(=O)n4n2)cn3C2CC2)CC1`, the IC50 lay in the range of 300 to 8400 nM.
As for `CN1CCN(c2cc3c(cc2F)c(=O)c(-c2nc4s/c(=C\c5ccc(C#N)cc5)c(=O)n4n2)cn3C2CC2)CC1`, the IC50 is over 10000 nM.
Take `CN1CCN(c2cc3c(cc2F)c(=O)c(-c2nc4s/c(=C\c5cccc(C(=O)O)c5)c(=O)n4n2)cn3C2CC2)CC1`: the IC50 was in the range of 300 to 8400 nM.

The next test relates to HCT-116. Kind of test: Cytotoxicity against human HCT116 cells assessed as reduction in cell viability by SRB assay. The class given is functional, cell-based. On the technique in general: The SRB assay estimates cell density from bound dye.
In the case of `O=c1[nH]c2ccccc2c2n[nH]c(/C=C/c3ccccc3)c12`, the IC50 was in the range of 160 to 300 nM.
Regarding `O=C(CCCCCn1cc(C(=O)Nc2nc3ccccc3s2)c(=O)c2ccccc21)NO`, the IC50 was 600 to 1000 nM.
Consider `O=c1[nH]cc(F)c(=O)[nH]1` [FLUOROURACIL], for which the IC50 was found to be 540 nM.
Same read-out and setting: then `COc1ccc2c(c1)c(=O)c(C(=O)Nc1nc3ccccc3s1)cn2CCCCCC(=O)NO`, with 600 to 16000 nM.
Still for that read-out and setting: to `O=C(CCCCCn1cc(C(=O)Nc2nc3ccccc3s2)c(=O)c2cc(F)ccc21)NO` belongs 600 to 16000 nM; to `Cc1csc(NC(=O)c2cn(CCCCCC(=O)NO)c3ccccc3c2=O)n1`, 2430 to 2900 nM.
Still for that read-out and setting: then `CC(=O)n1cc2c(=O)[nH]c3ccccc3c2n1`, with 160 to 300 nM; and `Cn1nc(-c2ccccc2)cc1NC(=O)c1cn(CCCCCC(=O)NO)c2ccccc2c1=O`, with 600 to 16000 nM; and `O=C(CCCCCn1cc(C(=O)Nc2nccs2)c(=O)c2ccccc21)NO`, with 5000 to 16000 nM.
With `O=c1[nH]c2ccccc2c2n[nH]c(-c3cn(-c4ccccc4)nc3-c3ccccc3)c12`, the IC50 fell in the range of 160 to 300 nM.
`O=c1[nH]c2ccccc2c2nn(-c3ccccc3)c(-c3cn(-c4ccccc4)nc3-c3ccccc3)c12`: the IC50 is 160 to 300 nM.
Still for that read-out and setting: then `COc1ccc2c(c1)c(=O)c(C(=O)Nc1cc(-c3ccccc3)nn1C)cn2CCCCCC(=O)NO`, with 600 to 16000 nM.
As to `CC(=O)n1nc2c(c1-c1cccs1)c(=O)[nH]c1ccccc12`, the IC50 is 160 to 300 nM.
Still for that read-out and setting: to `COc1ccc(-c2c3c(=O)[nH]c4ccccc4c3nn2C(C)=O)cc1` belongs 160 to 300 nM.

The subject of another test is NCI-H460. Kind of test: Cytotoxicity against human NCI-H460 cells assessed as reduction in cell viability by SRB assay. The format is functional, cell-based.
Take `O=c1[nH]c2ccccc2c2n[nH]c(/C=C/c3ccccc3)c12`: the 50% inhibitory concentration (IC50) lay within 160 to 300 nM.
On the same count and under the same terms, to `O=C(CCCCCn1cc(C(=O)Nc2nc3ccccc3s2)c(=O)c2ccccc21)NO` belongs 600 to 1000 nM; to `O=c1[nH]cc(F)c(=O)[nH]1` [FLUOROURACIL], 540 nM.
As for `COc1ccc2c(c1)c(=O)c(C(=O)Nc1nc3ccccc3s1)cn2CCCCCC(=O)NO`, the IC50 lay within 600 to 16000 nM.
Still for that read-out and setting: to `O=C(CCCCCn1cc(C(=O)Nc2nc3ccccc3s2)c(=O)c2cc(F)ccc21)NO` belongs 600 to 16000 nM.
For `Cc1csc(NC(=O)c2cn(CCCCCC(=O)NO)c3ccccc3c2=O)n1`, the IC50 was 2430 to 2900 nM.
Take `CC(=O)n1cc2c(=O)[nH]c3ccccc3c2n1`: the half-maximal inhibitory concentration (IC50) lay in the range of 160 to 300 nM.
Same read-out and setting: to `Cn1nc(-c2ccccc2)cc1NC(=O)c1cn(CCCCCC(=O)NO)c2ccccc2c1=O` belongs 600 to 16000 nM.
With `O=C(CCCCCn1cc(C(=O)Nc2nccs2)c(=O)c2ccccc21)NO`, the IC50 lay within 5000 to 16000 nM.
In the case of `O=c1[nH]c2ccccc2c2n[nH]c(-c3cn(-c4ccccc4)nc3-c3ccccc3)c12`, the IC50 is 160 to 300 nM.
Same read-out and setting: to `O=c1[nH]c2ccccc2c2nn(-c3ccccc3)c(-c3cn(-c4ccccc4)nc3-c3ccccc3)c12` belongs 160 to 300 nM; to `COc1ccc2c(c1)c(=O)c(C(=O)Nc1cc(-c3ccccc3)nn1C)cn2CCCCCC(=O)NO`, 600 to 16000 nM.
Same read-out and setting: to `CC(=O)n1nc2c(c1-c1cccs1)c(=O)[nH]c1ccccc12` belongs 160 to 300 nM; to `COc1ccc(-c2c3c(=O)[nH]c4ccccc4c3nn2C(C)=O)cc1`, 160 to 300 nM.

A further test deals with U-251. As to the kind of experiment: Cytotoxicity against human U251 cells assessed as reduction in cell viability by SRB assay. The format is functional, cell-based.
Take `O=c1[nH]c2ccccc2c2n[nH]c(/C=C/c3ccccc3)c12`: the IC50 is 160 to 300 nM.
As for `O=C(CCCCCn1cc(C(=O)Nc2nc3ccccc3s2)c(=O)c2ccccc21)NO`, the IC50 lay in the range of 600 to 1000 nM.
For `O=c1[nH]cc(F)c(=O)[nH]1` [FLUOROURACIL], the IC50 is 540 nM.
With `COc1ccc2c(c1)c(=O)c(C(=O)Nc1nc3ccccc3s1)cn2CCCCCC(=O)NO`, the IC50 is 600 to 16000 nM.
Same read-out and setting: to `O=C(CCCCCn1cc(C(=O)Nc2nc3ccccc3s2)c(=O)c2cc(F)ccc21)NO` belongs 600 to 16000 nM; to `Cc1csc(NC(=O)c2cn(CCCCCC(=O)NO)c3ccccc3c2=O)n1`, 2430 to 2900 nM.
The same measure, in the same setting: then `CC(=O)n1cc2c(=O)[nH]c3ccccc3c2n1`, with 160 to 300 nM.
Regarding `Cn1nc(-c2ccccc2)cc1NC(=O)c1cn(CCCCCC(=O)NO)c2ccccc2c1=O`, the concentration for half-maximal inhibition (IC50) lay within 600 to 16000 nM.
As for `O=C(CCCCCn1cc(C(=O)Nc2nccs2)c(=O)c2ccccc21)NO`, the IC50 lay within 5000 to 16000 nM.
For the compound `O=c1[nH]c2ccccc2c2n[nH]c(-c3cn(-c4ccccc4)nc3-c3ccccc3)c12`, the IC50 was in the range of 160 to 300 nM.
Take `O=c1[nH]c2ccccc2c2nn(-c3ccccc3)c(-c3cn(-c4ccccc4)nc3-c3ccccc3)c12`: the IC50 lay within 160 to 300 nM.
For `COc1ccc2c(c1)c(=O)c(C(=O)Nc1cc(-c3ccccc3)nn1C)cn2CCCCCC(=O)NO`, the IC50 was 600 to 16000 nM.
Consider `CC(=O)n1nc2c(c1-c1cccs1)c(=O)[nH]c1ccccc12`, for which the IC50 is 160 to 300 nM.
For the compound `COc1ccc(-c2c3c(=O)[nH]c4ccccc4c3nn2C(C)=O)cc1`, the IC50 was 160 to 300 nM.

In a further test the test system is CAPAN-1. As to the kind of experiment: Cytotoxicity against human Capan1 cells assessed as reduction in cell viability. The format is functional, cell-based.
On to `COc1ccc(/C=c2\sc3nc(-c4cn(C5CC5)c5cc(N6CCN(C)CC6)c(F)cc5c4=O)nn3c2=O)cc1`, for which the IC50 was over 10000 nM.
In the case of `CN1CCN(c2cc3c(cc2F)c(=O)c(-c2nc4s/c(=C\c5ccc([N+](=O)[O-])cc5)c(=O)n4n2)cn3C2CC2)CC1`, the IC50 is 300 to 8400 nM.
On the same count and under the same terms, then `CN1CCN(c2cc3c(cc2F)c(=O)c(-c2nc4s/c(=C\c5cccc(S(N)(=O)=O)c5)c(=O)n4n2)cn3C2CC2)CC1`, with 300 to 8400 nM; and `COC(=O)c1ccc(/C=c2\sc3nc(-c4cn(C5CC5)c5cc(N6CCN(C)CC6)c(F)cc5c4=O)nn3c2=O)cc1`, with 300 to 8400 nM.
The same measure, in the same setting: then `CN1CCN(c2cc3c(cc2F)c(=O)c(-c2nc4s/c(=C\c5cccc([N+](=O)[O-])c5)c(=O)n4n2)cn3C2CC2)CC1`, with 300 to 8400 nM; and `CN1CCN(c2cc3c(cc2F)c(=O)c(-c2nc4s/c(=C\c5ccc(C#N)cc5)c(=O)n4n2)cn3C2CC2)CC1`, with over 10000 nM; and `CN1CCN(c2cc3c(cc2F)c(=O)c(-c2nc4s/c(=C\c5cccc(C(=O)O)c5)c(=O)n4n2)cn3C2CC2)CC1`, with 300 to 8400 nM.

A further test has as its system Hep 3B2. As to the kind of experiment: Cytotoxicity against human Hep3B cells assessed as reduction in cell viability. The format is functional, cell-based.
With `COc1ccc(/C=c2\sc3nc(-c4cn(C5CC5)c5cc(N6CCN(C)CC6)c(F)cc5c4=O)nn3c2=O)cc1`, the IC50 was over 10000 nM.
The same measure, in the same setting: then `CN1CCN(c2cc3c(cc2F)c(=O)c(-c2nc4s/c(=C\c5ccc([N+](=O)[O-])cc5)c(=O)n4n2)cn3C2CC2)CC1`, with 300 to 8400 nM.
On the same count and under the same terms, then `CN1CCN(c2cc3c(cc2F)c(=O)c(-c2nc4s/c(=C\c5cccc(S(N)(=O)=O)c5)c(=O)n4n2)cn3C2CC2)CC1`, with 300 to 8400 nM; and `COC(=O)c1ccc(/C=c2\sc3nc(-c4cn(C5CC5)c5cc(N6CCN(C)CC6)c(F)cc5c4=O)nn3c2=O)cc1`, with 300 to 8400 nM.
As for `CN1CCN(c2cc3c(cc2F)c(=O)c(-c2nc4s/c(=C\c5cccc([N+](=O)[O-])c5)c(=O)n4n2)cn3C2CC2)CC1`, the IC50 is 300 to 8400 nM.
As for `CN1CCN(c2cc3c(cc2F)c(=O)c(-c2nc4s/c(=C\c5ccc(C#N)cc5)c(=O)n4n2)cn3C2CC2)CC1`, the half-inhibitory concentration (IC50) was over 10000 nM.
Regarding `CN1CCN(c2cc3c(cc2F)c(=O)c(-c2nc4s/c(=C\c5cccc(C(=O)O)c5)c(=O)n4n2)cn3C2CC2)CC1`, the IC50 was in the range of 300 to 8400 nM.
